Here are results for 2 molecules from patent US10933059B2, “Combination, application thereof and treatment method” (KANGPU BIOPHARMACEUTICALS, LTD., priority 2016, dated 2021).

Common to all, as to format: cell-based
One assay has as its system PSA (Prostate antigen). Kind of assay: PSA inhibition rate experiment (PSA secretion in supernatant of VCap cells). As to conditions: Homo sapiens, 120 h.
The test system of the next assay is LNCap cells. As to the kind of experiment: CTG cell proliferation assay on LNCap cells (method of Effect embodiment 1). Particulars: tested compound alone.
The subject of another assay is Vcap cells. As to the kind of experiment: CTG cell proliferation assay on Vcap cells (compounds alone or in combination, 5 days). As to the method: In vitro test of the inhibition effect of the compound in combination with androgen receptor pathway modulators on the prostate cancer cell proliferation.
Inhibition effect of the compounds such as B101, B102, B103, B104, B105, B106, C111 and the like, androgen receptor pathway modulators, hormone compounds, alone or in combination with each other on the prostate cancer cell proliferation were tested on Vcap cells (androgen receptor (+) prostate cancer cells) (ATCC, catalogue number CRL-2876). The specific experimental operation was as follows: 5×10^3 Vcap cells per well were inoculated into 96-well plates with transparent bottom and white wall (Corning, catalogue number CLS3903) containing the specific medium, and were cultured in a 37° C., 5% CO2 incubator for 24 hours. The tested compounds and the androgen receptor pathway modulators were prepared to a 150 mM stocking solution with DMSO (Sigma, catalogue number 276855), diluted with culture medium to the desired concentrations (the final concentration of DMSO is 0.2%), and then added to each well, 2 wells/concentration, followed by being incubated in a 37° C., 5% CO2 incubator for 5 days. The tested compounds were used alone or in combination with other androgen receptor pathway modulators and/or hormone compounds respectively. […] After that, 100 μl of CellTiter-Glo® cell viability assay reagent (Promega, catalogue number G7570) was added to each well and mixed well on a vibrator for 10 minutes to induce cell lysis. The 96-well plate was placed at room temperature for 10 minutes, so as to stabilize its luminescence signal. A white bottom membrane was pasted on the bottom of the plate and the plate was tested using EnSpire.

Procedure for PSA (Prostate antigen): Cells were collected in exponential growth phase for viable cell count. The cell suspension was adjusted to 4.17×10E4/ml with the medium mentioned above. 120 μl of cell suspension was added to each well of a 96-well cell culture plateat, a final concentration of cells was 5000 cells/well. The cells were incubated overnight in a 37° C., 5% CO2 incubator.
10 mM stocking solution was prepared by dissolving each tested compound in DMSO. […] The final concentration of DMSO per well was 0.2%. The cells were incubated for 5 days in a 37° C., 5% CO2 incubator.
After 5 days' drug treatment, the cell supernatant of each well was collected, and centrifuged at 2000 r/min for 5 minutes, then transferred to a clean EP tube for PSA detection.
Wherein, Vsample is the PSA reading of the drug treatment group, and VDMSO is the average value of PSA of the solvent control group.

A word on the inhibition: it is how much of the control response was suppressed. Low values mean a response near the control, high ones a response far below the control. `CNC(=O)c1ccc(N2C(=S)N(c3ccc(C#N)c(C(F)(F)F)c3)C(=O)C2(C)C)cc1F` [Enzalutamide, reference compound] registered an inhibition at 0.5 µM with PSA (Prostate antigen) of 30.7%. For the same molecule, the “Survival rate of LNCap cells” value with LNCap cells (0.1 μM) is given as 101.5%; with LNCap cells (1 μM), 70.5%; in the assay with LNCap cells (1 μM, listed as enzalutamide) it was 70.5%; in the assay on LNCap cells (10 μM), 59.3%.
As for `CNC(=O)c1ccc(N2C(=S)N(c3cnc(C#N)c(C(F)(F)F)c3)C(=O)C23CCC3)cc1F` [ARN-509, reference compound], the “Survival rate of LNCap cells” value with LNCap cells (0.1 μM) was found to be 105.2%; with LNCap cells (1 μM), 86.7%; in the assay on LNCap cells (10 μM) it was 60.2%. For the same molecule, the “Survival rate of Vcap cells” value in the assay with Vcap cells (tested compound 0.1 μM in combination with 1 μM B101) was 42.7%; with Vcap cells (tested compound 0.1 μM in combination with 1 μM B105), 45.3%; with Vcap cells (tested compound 1 μM in combination with 1 μM B101), 39.2%; with Vcap cells (tested compound 1 μM in combination with 1 μM B105), 38.6%; in the assay on Vcap cells (tested compound 10 μM in combination with 1 μM B101), 38.4%; with Vcap cells (tested compound 10 μM in combination with 1 μM B105) it was 38.0%.
